Values quoted from earlier work as cited in patent US8198020B2, “Compositions and methods for enhancing phagocytosis or phagocyte activity” (Potentia Pharmaceuticals, Inc., priority 2003, dated 2012).

Test system: metastatic colorectal cancer
Settings: patients with metastatic colorectal cancer; prolonged from 15.6

Q: With “Avastin: recombinant monoclonal antibody that binds to VEGF” as the substance, how does the median survival read?
A: 18.3 months
